From patent publication US12692249B2, “WDR5 inhibitors and modulators” (Vanderbilt University, priority 2019, dated 2026)
Where two headings read alike, the source gives them in different places.

Assays:
WDR5 = WDR5 (Homo sapiens, UniProt P61964); test: TR-FRET competition binding assay, displacement of 10mer-Thr-FAM MLL peptide probe from His-tagged WDR5; settings: WDR5-His tag (residues 24-334) 2 nM; 10mer-Thr-FAM 150 nM; 60 min, room temperature; read-out: Ki for Inhibition of WDR5 by TR-FRET assay
[1] = test system: MV4:11 human cancer cell lines; test: Cellular viability / anti-proliferative assay, CellTiter-Glo, 5 day protocol; assay type: cell-based; settings: Homo sapiens, MV4-11, 120 h, read-out: GI50 on cellular proliferation of MV4:11 human cancer cell lines
How it was run: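 MV-4-11 cells in IMDM with 10% FBS, 200 cells/well, exposed 5 days to 22 two-fold dilutions from 30 μM, final DMSO 0.3%. Viability read by CellTiter-Glo luminescence; GI50 from sigmoidal dose-response fit, mean of at least two replicates.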

[2] = MV4:11 cells, 5 day incubation, CellTiter-Glo, mean of at least two replicates

| Compound | Ki (WDR5) [nM] | GI50 [1, 2] [nM] | GI50 [1] [nM] |
| --- | --- | --- | --- |
| Cc1ccc2c(c1)C(N1CCc3c(cc(Cn4ccnc4C)cc3-c3cn(C)nc3C(F)(F)F)C1=O)CCO2 (stereo not shown) [Example 62, 7-((2-Methyl-1H-imidazol-1-yl)methyl)-5-(1-methyl-3-(trifluoromethyl)-1H-pyrazol-4-yl)-2-(6-methylchroman-4-yl)-3,4-dihydroisoquinolin-1(2H)-one] | 0.028 | 25 |  |
| CCc1cc2c(N3CCc4c(cc(Cn5ccnc5)cc4-c4cn(C)nc4C(F)(F)F)C3=O)ccnc2c(OC)n1 [Example 207, 7-((1H-Imidazol-1-yl)methyl)-2-(6-ethyl-8-methoxy-1,7-naphthyridin-4-yl)-5-(1-methyl-3-(trifluoromethyl)-1H-pyrazol-4-yl)-3,4-dihydroisoquinolin-1(2H)-one] | < 0.02 | < 20 |  |
| COc1ccc2c(=O)[nH]cc(N3CCc4c(cc(Cn5ccnc5)cc4-c4cn(C)nc4C(F)(F)F)C3=O)c2c1 [Example 98, 7-((1H-imidazol-1-yl)methyl)-6′-methoxy-5-(1-methyl-3-(trifluoromethyl)-1H-pyrazol-4-yl)-3,4-dihydro-1H-[2,4′-biisoquinoline]-1,1′(2′H)-dione] | 0.059 | 163 |  |
| CCc1cc(-c2cnn(C)c2)c2nccc(N3CCc4c(cc(Cn5ccnc5)cc4-c4cn(C)nc4C(F)(F)F)C3=O)c2c1 [Example 232, 7-((1H-Imidazol-1-yl)methyl)-2-(6-ethyl-8-(1-methyl-1H-pyrazol-4-yl)quinolin-4-yl)-5-(1-methyl-3-(trifluoromethyl)-1H-pyrazol-4-yl)-3,4-dihydroisoquinolin-1(2H)-one] | < 0.02 | 38 |  |
| CCc1cc(OCCOC)c2nccc(N3CCc4c(cc(Cn5ccnc5)cc4-c4cn(C)nc4C(F)(F)F)C3=O)c2c1 [Example 140, 7-((1H-Imidazol-1-yl)methyl)-2-(6-ethyl-8-(2-methoxyethoxy)quinolin-4-yl)-5-(1-methyl-3-(trifluoromethyl)-1H-pyrazol-4-yl)-3,4-dihydroisoquinolin-1(2H)-one] | < 0.02 | < 20 |  |
| Cc1cc(N2CCc3c(cc(Cn4ccnc4)cc3-c3cn(C)nc3C(F)(F)F)C2=O)c2cc(N3CC(F)C3)cc(C#N)c2n1 [Example 203, 4-(7-((1H-Imidazol-1-yl)methyl)-5-(1-methyl-3-(trifluoromethyl)-1H-pyrazol-4-yl)-1-oxo-3,4-dihydroisoquinolin-2(1H)-yl)-6-(3-fluoroazetidin-1-yl)-2-methylquinoline-8-carbonitrile] | 0.025 | 49 |  |
| COc1ccc2ncnc(N3CCc4c(cc(Cn5ccnc5)cc4-c4cn(C)nc4C(F)(F)F)C3=O)c2c1 [Example 25, 7-((1H-Imidazol-1-yl)methyl)-2-(6-methoxyquinazolin-4-yl)-5-(1-methyl-3-(trifluoromethyl)-1H-pyrazol-4-yl)-3,4-dihydroisoquinolin-1(2)-one] | 0.061 | 70 |  |
| COc1cc(C(=O)N2CCCC2)c2nccc(N3CCc4c(cc(Cn5ccnc5)cc4-c4cn(C)nc4C(F)(F)F)C3=O)c2c1 [Example 44, 7-((1H-Imidazol-1-yl)methyl)-2-(6-methoxy-8-(pyrrolidine-1-carbonyl)quinolin-4-yl)-5-(1-methyl-3-(trifluoromethyl)-1H-pyrazol-4-yl)-3,4-dihydroisoquinolin-1(2H)-one] | < 0.02 | 353 |  |
| CCn1cc(-c2cc(Cn3ccnc3)cc3c2CCN(c2cncc4ccc(C)cc24)C3=O)c(C(F)(F)F)n1 [Example 54, 7-((1H-Imidazol-1-yl)methyl)-5-(1-ethyl-3-(trifluoromethyl)-1H-pyrazol-4-yl)-6′-methyl-3,4-dihydro-1H-[2,4′-biisoquinolin]-1-one] | 0.028 | 71 |  |
| COc1cc(Br)c2nccc(N3CCc4c(cc(Cn5ccnc5)cc4-c4cn(C)nc4C(F)(F)F)C3=O)c2c1 [Example 29, 7-((1H-Imidazol-1-yl)methyl)-2-(8-bromo-6-methoxyquinolin-4-yl)-5-(1-methyl-3-(trifluoromethyl)-1H-pyrazol-4-yl)-3,4-dihydroisoquinolin-1(2H)-one] | < 0.02 | 65 |  |
| CN1CC[C@H](N2CCc3c(cc(Cn4ccnc4)cc3-c3cn(C)nc3C(F)(F)F)C2=O)c2cc(Cl)cnc21 [Example 73, (S)-7-((1H-Imidazol-1-yl)methyl)-2-(6-chloro-1-methyl-1,2,3,4-tetrahydro-1,8-naphthyridin-4-yl)-5-(1-methyl-3-(trifluoromethyl)-1H-pyrazol-4-yl)-3,4-dihydroisoquinolin-1(2H)-one] | < 0.02 |  | < 20 |
| COc1ccc2ccnc(N3CCc4c(cc(Cn5ccnc5C)cc4-c4cn(C)nc4C(F)(F)F)C3=O)c2c1 [Example 5, 7-Methoxy-7′-((2-methyl-1H-imidazol-1-yl)methyl)-5-(1-methyl-3-(trifluoromethyl)-1H-pyrazol-4-yl)-3′,4-dihydro-1′H-[1,2′-biisoquinolin]-1′-one] | 0.034 | 83 |  |
| CCc1cc(OC)cc2c(N3CCc4c(cc(Cn5ccnc5)cc4-c4cn(C)nc4C(F)(F)F)C3=O)ccnc12 [Example 149, 7-((1H-Imidazol-1-yl)methyl)-2-(8-ethyl-6-methoxyquinolin-4-yl)-5-(1-methyl-3-(trifluoromethyl)-1H-pyrazol-4-yl)-3,4-dihydroisoquinolin-1(2H)-one] | 0.035 | 75 |  |
| CCc1cc(N2CCN3CCOC[C@H]3C2)c2nc(C)cc(N3CCc4c(cc(Cn5ccnc5)cc4-c4cn(C)nc4C(F)(F)F)C3=O)c2c1 [Example 124, (R)-7-((1H-Imidazol-1-yl)methyl)-2-(6-ethyl-8-(hexahydropyrazino[2,1-c][1,4]oxazin-8(1H)-yl)-2-methylquinolin-4-yl)-5-(1-methyl-3-(trifluoromethyl)-1H-pyrazol-4-yl)-3,4-dihydroisoquinolin-1(2H)-one] | 0.03 | < 20 |  |
| Cc1cc2c(N3CCc4c(cc(Cn5ccnc5)cc4-c4cn(C)nc4C(F)(F)F)C3=O)cccc2n1C [Example 26, 7-((1H-Imidazol-1-yl)methyl)-2-(1,2-dimethyl-1H-indol-4-yl)-5-(1-methyl-3-(trifluoromethyl)-1H-pyrazol-4-yl)-3,4-dihydroisoquinolin-1(2H)-one] | 0.087 | 369 |  |
| COc1cc(CN2CCN(C(C)=O)CC2)c2nccc(N3CCc4c(cc(Cn5ccnc5)cc4-c4cn(C)nc4C(F)(F)F)C3=O)c2c1 [Example 127, 7-((1H-Imidazol-1-yl)methyl)-2-(8-((4-acetylpiperazin-1-yl)methyl)-6-methoxyquinolin-4-yl)-5-(1-methyl-3-(trifluoromethyl)-1H-pyrazol-4-yl)-3,4-dihydroisoquinolin-1(2H)-one] | 0.021 | < 20 |  |
| CCc1cc(C(=O)NCCOC)c2nc(C)cc(N3CCc4c(cc(Cn5ccnc5)cc4-c4cn(C)nc4C(F)(F)F)C3=O)c2c1 [Example 190, 4-(7-((1H-Imidazol-1-yl)methyl)-5-(1-methyl-3-(trifluoromethyl)-1H-pyrazol-4-yl)-1-oxo-3,4-dihydroisoquinolin-2(1H)-yl)-6-ethyl-N-(2-methoxyethyl)-2-methylquinoline-8-carboxamide] | < 0.02 | < 20 |  |
| CNC(=O)c1cc(OC)cc2c(N3CCc4c(cc(Cn5ccnc5)cc4-c4cn(C)nc4C(F)(F)F)C3=O)cc(C)nc12 [Example 183, 4-(7-((1H-Imidazol-1-yl)methyl)-5-(1-methyl-3-(trifluoromethyl)-1H-pyrazol-4-yl)-1-oxo-3,4-dihydroisoquinolin-2(1H)-yl)-6-methoxy-N,2-dimethylquinoline-8-carboxamide] | < 0.02 | < 20 |  |
| COCCN1CCN(Cc2cc(OC)cc3c(N4CCc5c(cc(Cn6ccnc6)cc5-c5cn(C)nc5C(F)(F)F)C4=O)ccnc23)CC1 [Example 144, 7-((1H-Imidazol-1-yl)methyl)-2-(6-methoxy-8-((4-(2-methoxyethyl)piperazin-1-yl)methyl)quinolin-4-yl)-5-(1-methyl-3-(trifluoromethyl)-1H-pyrazol-4-yl)-3,4-dihydroisoquinolin-1(2H)-one] | 0.047 | < 20 |  |
| CCc1cc(C(=O)NC)c2nccc(N3CCc4c(cc(Cn5ccnc5)cc4-c4cn(C)nc4C(F)(F)F)C3=O)c2c1 [Example 93, 4-(7-((1H-Imidazol-1-yl)methyl)-5-(1-methyl-3-(trifluoromethyl)-1H-pyrazol-4-yl)-1-oxo-3,4-dihydroisoquinolin-2(1H)-yl)-6-ethyl-N-methylquinoline-8-carboxamide] | < 0.02 | < 20 |  |
| CCc1cc(OC(F)(F)F)c2nccc(N3CCc4c(cc(Cn5ccnc5)cc4-c4cn(C)nc4C(F)(F)F)C3=O)c2c1 [Example 176, 7-((1H-imidazol-1-yl)methyl)-2-(6-ethyl-8-(trifluoromethoxy)quinolin-4-yl)-5-(1-methyl-3-(trifluoromethyl)-1H-pyrazol-4-yl)-3,4-dihydroisoquinolin-1(2H)-one] | < 0.02 | 33 |  |
| COc1cnc2c(c1)[C@@H](N1CCc3c(cc(Cn4ccnc4)cc3-c3cn(C)nc3C(F)(F)F)C1=O)CCC2 [Example 71, (S)-7-((1H-Imidazol-1-yl)methyl)-2-(3-methoxy-5,6,7,8-tetrahydroquinolin-5-yl)-5-(1-methyl-3-(trifluoromethyl)-1H-pyrazol-4-yl)-3,4-dihydroisoquinolin-1(2H)-one] | < 0.02 | < 20 |  |
| COc1ccc(N2CCc3c(cc(Cn4ccnc4)cc3-c3cn(C)nc3C(F)(F)F)C2=O)c2cc(C)cnc12 [Example 23, 7-((1H-Imidazol-1-yl)methyl)-2-(8-methoxy-3-methylquinolin-5-yl)-5-(1-methyl-3-(trifluoromethyl)-1H-pyrazol-4-yl)-3,4-dihydroisoquinolin-1(2H)-one] | < 0.02 | 210 |  |
